Test system: RS4;11 cells
Test: Cell viability assay (CellTiter-Glo) in RS4;11 cells
Type: cell-based
Details: Homo sapiens, 72 h; RS4;11 cells; cell viability, 3 days, CellTiter-Glo; read-out: IC50
How it was run: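 RS4;11 cells seeded at 5000 per well, exposed for 3 days to 8- or 12-point 3-fold serial dilutions. Viability read by CellTiter-Glo luminescence; IC50 fitted by nonlinear least-squares regression.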

Structure (SMILES) | IC50
O=C1CCC(n2c(=O)n(CCCCCC(=O)N3CCC(n4cc(-c5cnc6cccc(-c7cc(F)c(CN8CCOCC8)c(F)c7)c6n5)cn4)CC3)c3ccccc32)C(=O)N1 (centres unmarked) [JA-278, 3-(3-(6-(4-(4-(8-(3,5-Difluoro-4-(morpholinomethyl)phenyl)quinoxalin-2-yl)-1H-pyrazol-1-yl)piperidin-1-yl)-6-oxohexyl)-2-oxo-2,3-dihydro-1H-benzo[d]imidazol-1-yl)piperidine-2,6-dione] | > 0.5 µM
Cc1cnc(Nc2ccc(N3CCN(C(=O)CCCCCCCNc4cccc5c4C(=O)N(C4CCC(=O)NC4=O)C5=O)CC3)cc2)nc1Nc1cccc(S(=O)(=O)NC(C)(C)C)c1 (centres unmarked) [JA-016, N-(tert-Butyl)-3-((2-((4-(4-(8-((2-(2,6-dioxopiperidin-3-yl)-1,3-dioxoisoindolin-4-yl)amino)octanoyl)piperazin-1-yl)phenyl)amino)-5-methylpyrimidin-4-yl)amino)benzenesulfonamide] | > 10 µM
O=C(CN1CCC(n2cc(-c3cnc4cccc(-c5cc(F)c(CN6CCOCC6)c(F)c5)c4n3)cn2)CC1)NCCCNc1cccc2c1C(=O)N(C1CCC(=O)NC1=O)C2=O (centres unmarked) [JA-154, 2-(4-(4-(8-(3,5-Difluoro-4-(morpholinomethyl)phenyl)quinoxalin-2-yl)-1H-pyrazol-1-yl)piperidin-1-yl)-N-(3-((2-(2,6-dioxopiperidin-3-yl)-1,3-dioxoisoindolin-4-yl)amino)propyl)acetamide] | 1.41 µM
CS(=O)(=O)c1ccc(-c2cccc3nc(Nc4ccc(N5CCN(C(=O)CCCCCn6c(=O)n(C7CCC(=O)NC7=O)c7ccccc76)CC5)cc4)nn23)cc1 (centres unmarked) [JA-280, 3-(3-(6-(4-(4-((5-(4-(Methylsulfonyl)phenyl)-[1,2,4]triazolo[1,5-a]pyridin-2-yl)amino)phenyl)piperazin-1-yl)-6-oxohexyl)-2-oxo-2,3-dihydro-1H-benzo[d]imidazol-1-yl)piperidine-2,6-dione] | > 0.5 µM
Cn1c(=O)n(C2CCC(=O)NC2=O)c2ccc(NCCCCC(=O)N3CCC(n4cc(-c5cnc6cccc(-c7cc(F)c(CN8CCOCC8)c(F)c7)c6n5)cn4)CC3)cc21 (centres unmarked) [JA-287, 3-(5-((5-(4-(4-(8-(3,5-Difluoro-4-(morpholinomethyl)phenyl)quinoxalin-2-yl)-1H-pyrazol-1-yl)piperidin-1-yl)-5-oxopentyl)amino)-3-methyl-2-oxo-2,3-dihydro-1H-benzo[d]imidazol-1-yl)piperidine-2,6-dione] | > 0.5 µM
O=C(CN1CCC(n2cc(-c3cnc4cccc(-c5cc(F)c(CN6CCOCC6)c(F)c5)c4n3)cn2)CC1)NCCCCNc1cccc2c1C(=O)N(C1CCC(=O)NC1=O)C2=O (centres unmarked) [JA-146, 2-(4-(4-(8-(3,5-Difluoro-4-(morpholinomethyl)phenyl)quinoxalin-2-yl)-1H-pyrazol-1-yl)piperidin-1-yl)-N-(4-((2-(2,6-dioxopiperidin-3-yl)-1,3-dioxoisoindolin-4-yl)amino)butyl)acetamide] | > 10 µM

Further compounds by falling IC50, results first:

IC50 | Structure (SMILES)
6.46 µM | Cc1ncsc1-c1ccc(CNC(=O)[C@@H]2C[C@@H](O)CN2C(=O)[C@@H](NC(=O)COCC(=O)N2CCN(c3ccc(Nc4nc5cccc(-c6ccc(S(C)(=O)=O)cc6)n5n4)cc3)CC2)C(C)(C)C)cc1 [JA-072, (2S,4R)-1-((S)-3,3-Dimethyl-2-(2-(2-(4-(4-((5-(4-(methylsulfonyl)phenyl)-[1,2,4]triazolo[1,5-a]pyridin-2-yl)amino)phenyl)piperazin-1-yl)-2-oxoethoxy)acetamido)butanoyl)-4-hydroxy-N-(4-(4-methylthiazol-5-yl)benzyl)pyrrolidine-2-carboxamide]
3.7 µM | Cc1cnc(Nc2ccc(N3CCN(CC(=O)NCCCC(=O)N[C@H](C(=O)N4C[C@H](O)C[C@H]4C(=O)NCc4ccc(-c5scnc5C)cc4)C(C)(C)C)CC3)cc2)nc1Nc1cccc(S(=O)(=O)NC(C)(C)C)c1 [JA-099, (2S,4R)-1-((S)-2-(4-(2-(4-(4-((4-((3-(N-(tert-Butyl)sulfamoyl)phenyl)amino)-5-methylpyrimidin-2-yl)amino)phenyl)piperazin-1-yl)acetamido)butanamido)-3,3-dimethylbutanoyl)-4-hydroxy-N-(4-(4-methylthiazol-5-yl)benzyl)pyrrolidine-2-carboxamide]
